Molecules are shown by their SMILES.

The format of data set [1] is physicochemical. The source says:
The pKa and the Ka values are based on literature references, which include: • E. P. Serjeant and B. Dempsey (eds.), Ionization Constants of Organic Acids in Solution, IUPAC Chemical Data Series No. 23, Pergamon Press, Oxford, UK, 1979; • Part of Journal of Research of the National Bureau of Standards. Volume 31, December 1943, pH VALUES OF ACID.SALT MIXTURES OF SOME AROMATIC SULFONIC ACIDS AT VARIOUS TEMPERATURES AND A CRITERION OF COMPLETENESS OF DISSOCIATION, By Walter j. Hamer. Gladys D. Pinching, and S. F. Acree; • Guthrie, J. P. Hydrolysis of esters of oxy acids: pKa values for strong acids. Can. J. Chem. 1978, 56, 2342-2354;

For data set [2] the following is noted: estimated / in the order of; cited from earlier work.
The subject of the next data set is patients' biofilm. Briefly: Tests performed on patients' biofilm.

For the compound `CCCCCCCCCCCCc1ccc(S(=O)(=O)O)cc1` [4-dodecylbenzenesulphonic acid], the “acid form remaining undissociated upon contact with the biofilm” value in data set [1] is listed as “about 57%”. The “acid dissociation constant, Ka” value in data set [2] was 2-3.

With `Cc1cccc(S(=O)(=O)O)c1` [3-methylbenzenesulphonic acid], in the data set on patients' biofilm, the antimicrobial activity result is recorded as “considerable antimicrobial activity”. In data set [2], the “acid dissociation constant, Ka” value was ~600.

With `CCc1ccc(S(=O)(=O)O)cc1` [4-Ethylbenzenesulphonic acid], the antimicrobial activity result in the data set with patients' biofilm is reported as “considerable antimicrobial activity”. In data set [2], the “acid dissociation constant, Ka” value is on record as ~600.

Values taken from patent US20250235417A1, “Compositions for acute and chronic wounds” (DEBx Medical Holding B.V., priority 2021, published 2025).
